{"source": "patent EP4548971A1", "about": "“1,4-BENZOTHIAZEPINES AND RELATED COMPOUNDS WITH CYCLOPROPANOL GROUPS AS MULTI-TARGETED DRUGS” (Georg-August-Universität Göttingen Stiftung Öffentlichen …, priority 2023, dated 2025)", "assay_type_in_all_cases": "cell-based", "key": {"WT RyR2": {"biological_target": "T1, WT RyR2 (Mus musculus, UniProt E9Q401)", "T1 construct": "expressed in transfected cells", "T1 sequence (E9Q401 whole entry)": "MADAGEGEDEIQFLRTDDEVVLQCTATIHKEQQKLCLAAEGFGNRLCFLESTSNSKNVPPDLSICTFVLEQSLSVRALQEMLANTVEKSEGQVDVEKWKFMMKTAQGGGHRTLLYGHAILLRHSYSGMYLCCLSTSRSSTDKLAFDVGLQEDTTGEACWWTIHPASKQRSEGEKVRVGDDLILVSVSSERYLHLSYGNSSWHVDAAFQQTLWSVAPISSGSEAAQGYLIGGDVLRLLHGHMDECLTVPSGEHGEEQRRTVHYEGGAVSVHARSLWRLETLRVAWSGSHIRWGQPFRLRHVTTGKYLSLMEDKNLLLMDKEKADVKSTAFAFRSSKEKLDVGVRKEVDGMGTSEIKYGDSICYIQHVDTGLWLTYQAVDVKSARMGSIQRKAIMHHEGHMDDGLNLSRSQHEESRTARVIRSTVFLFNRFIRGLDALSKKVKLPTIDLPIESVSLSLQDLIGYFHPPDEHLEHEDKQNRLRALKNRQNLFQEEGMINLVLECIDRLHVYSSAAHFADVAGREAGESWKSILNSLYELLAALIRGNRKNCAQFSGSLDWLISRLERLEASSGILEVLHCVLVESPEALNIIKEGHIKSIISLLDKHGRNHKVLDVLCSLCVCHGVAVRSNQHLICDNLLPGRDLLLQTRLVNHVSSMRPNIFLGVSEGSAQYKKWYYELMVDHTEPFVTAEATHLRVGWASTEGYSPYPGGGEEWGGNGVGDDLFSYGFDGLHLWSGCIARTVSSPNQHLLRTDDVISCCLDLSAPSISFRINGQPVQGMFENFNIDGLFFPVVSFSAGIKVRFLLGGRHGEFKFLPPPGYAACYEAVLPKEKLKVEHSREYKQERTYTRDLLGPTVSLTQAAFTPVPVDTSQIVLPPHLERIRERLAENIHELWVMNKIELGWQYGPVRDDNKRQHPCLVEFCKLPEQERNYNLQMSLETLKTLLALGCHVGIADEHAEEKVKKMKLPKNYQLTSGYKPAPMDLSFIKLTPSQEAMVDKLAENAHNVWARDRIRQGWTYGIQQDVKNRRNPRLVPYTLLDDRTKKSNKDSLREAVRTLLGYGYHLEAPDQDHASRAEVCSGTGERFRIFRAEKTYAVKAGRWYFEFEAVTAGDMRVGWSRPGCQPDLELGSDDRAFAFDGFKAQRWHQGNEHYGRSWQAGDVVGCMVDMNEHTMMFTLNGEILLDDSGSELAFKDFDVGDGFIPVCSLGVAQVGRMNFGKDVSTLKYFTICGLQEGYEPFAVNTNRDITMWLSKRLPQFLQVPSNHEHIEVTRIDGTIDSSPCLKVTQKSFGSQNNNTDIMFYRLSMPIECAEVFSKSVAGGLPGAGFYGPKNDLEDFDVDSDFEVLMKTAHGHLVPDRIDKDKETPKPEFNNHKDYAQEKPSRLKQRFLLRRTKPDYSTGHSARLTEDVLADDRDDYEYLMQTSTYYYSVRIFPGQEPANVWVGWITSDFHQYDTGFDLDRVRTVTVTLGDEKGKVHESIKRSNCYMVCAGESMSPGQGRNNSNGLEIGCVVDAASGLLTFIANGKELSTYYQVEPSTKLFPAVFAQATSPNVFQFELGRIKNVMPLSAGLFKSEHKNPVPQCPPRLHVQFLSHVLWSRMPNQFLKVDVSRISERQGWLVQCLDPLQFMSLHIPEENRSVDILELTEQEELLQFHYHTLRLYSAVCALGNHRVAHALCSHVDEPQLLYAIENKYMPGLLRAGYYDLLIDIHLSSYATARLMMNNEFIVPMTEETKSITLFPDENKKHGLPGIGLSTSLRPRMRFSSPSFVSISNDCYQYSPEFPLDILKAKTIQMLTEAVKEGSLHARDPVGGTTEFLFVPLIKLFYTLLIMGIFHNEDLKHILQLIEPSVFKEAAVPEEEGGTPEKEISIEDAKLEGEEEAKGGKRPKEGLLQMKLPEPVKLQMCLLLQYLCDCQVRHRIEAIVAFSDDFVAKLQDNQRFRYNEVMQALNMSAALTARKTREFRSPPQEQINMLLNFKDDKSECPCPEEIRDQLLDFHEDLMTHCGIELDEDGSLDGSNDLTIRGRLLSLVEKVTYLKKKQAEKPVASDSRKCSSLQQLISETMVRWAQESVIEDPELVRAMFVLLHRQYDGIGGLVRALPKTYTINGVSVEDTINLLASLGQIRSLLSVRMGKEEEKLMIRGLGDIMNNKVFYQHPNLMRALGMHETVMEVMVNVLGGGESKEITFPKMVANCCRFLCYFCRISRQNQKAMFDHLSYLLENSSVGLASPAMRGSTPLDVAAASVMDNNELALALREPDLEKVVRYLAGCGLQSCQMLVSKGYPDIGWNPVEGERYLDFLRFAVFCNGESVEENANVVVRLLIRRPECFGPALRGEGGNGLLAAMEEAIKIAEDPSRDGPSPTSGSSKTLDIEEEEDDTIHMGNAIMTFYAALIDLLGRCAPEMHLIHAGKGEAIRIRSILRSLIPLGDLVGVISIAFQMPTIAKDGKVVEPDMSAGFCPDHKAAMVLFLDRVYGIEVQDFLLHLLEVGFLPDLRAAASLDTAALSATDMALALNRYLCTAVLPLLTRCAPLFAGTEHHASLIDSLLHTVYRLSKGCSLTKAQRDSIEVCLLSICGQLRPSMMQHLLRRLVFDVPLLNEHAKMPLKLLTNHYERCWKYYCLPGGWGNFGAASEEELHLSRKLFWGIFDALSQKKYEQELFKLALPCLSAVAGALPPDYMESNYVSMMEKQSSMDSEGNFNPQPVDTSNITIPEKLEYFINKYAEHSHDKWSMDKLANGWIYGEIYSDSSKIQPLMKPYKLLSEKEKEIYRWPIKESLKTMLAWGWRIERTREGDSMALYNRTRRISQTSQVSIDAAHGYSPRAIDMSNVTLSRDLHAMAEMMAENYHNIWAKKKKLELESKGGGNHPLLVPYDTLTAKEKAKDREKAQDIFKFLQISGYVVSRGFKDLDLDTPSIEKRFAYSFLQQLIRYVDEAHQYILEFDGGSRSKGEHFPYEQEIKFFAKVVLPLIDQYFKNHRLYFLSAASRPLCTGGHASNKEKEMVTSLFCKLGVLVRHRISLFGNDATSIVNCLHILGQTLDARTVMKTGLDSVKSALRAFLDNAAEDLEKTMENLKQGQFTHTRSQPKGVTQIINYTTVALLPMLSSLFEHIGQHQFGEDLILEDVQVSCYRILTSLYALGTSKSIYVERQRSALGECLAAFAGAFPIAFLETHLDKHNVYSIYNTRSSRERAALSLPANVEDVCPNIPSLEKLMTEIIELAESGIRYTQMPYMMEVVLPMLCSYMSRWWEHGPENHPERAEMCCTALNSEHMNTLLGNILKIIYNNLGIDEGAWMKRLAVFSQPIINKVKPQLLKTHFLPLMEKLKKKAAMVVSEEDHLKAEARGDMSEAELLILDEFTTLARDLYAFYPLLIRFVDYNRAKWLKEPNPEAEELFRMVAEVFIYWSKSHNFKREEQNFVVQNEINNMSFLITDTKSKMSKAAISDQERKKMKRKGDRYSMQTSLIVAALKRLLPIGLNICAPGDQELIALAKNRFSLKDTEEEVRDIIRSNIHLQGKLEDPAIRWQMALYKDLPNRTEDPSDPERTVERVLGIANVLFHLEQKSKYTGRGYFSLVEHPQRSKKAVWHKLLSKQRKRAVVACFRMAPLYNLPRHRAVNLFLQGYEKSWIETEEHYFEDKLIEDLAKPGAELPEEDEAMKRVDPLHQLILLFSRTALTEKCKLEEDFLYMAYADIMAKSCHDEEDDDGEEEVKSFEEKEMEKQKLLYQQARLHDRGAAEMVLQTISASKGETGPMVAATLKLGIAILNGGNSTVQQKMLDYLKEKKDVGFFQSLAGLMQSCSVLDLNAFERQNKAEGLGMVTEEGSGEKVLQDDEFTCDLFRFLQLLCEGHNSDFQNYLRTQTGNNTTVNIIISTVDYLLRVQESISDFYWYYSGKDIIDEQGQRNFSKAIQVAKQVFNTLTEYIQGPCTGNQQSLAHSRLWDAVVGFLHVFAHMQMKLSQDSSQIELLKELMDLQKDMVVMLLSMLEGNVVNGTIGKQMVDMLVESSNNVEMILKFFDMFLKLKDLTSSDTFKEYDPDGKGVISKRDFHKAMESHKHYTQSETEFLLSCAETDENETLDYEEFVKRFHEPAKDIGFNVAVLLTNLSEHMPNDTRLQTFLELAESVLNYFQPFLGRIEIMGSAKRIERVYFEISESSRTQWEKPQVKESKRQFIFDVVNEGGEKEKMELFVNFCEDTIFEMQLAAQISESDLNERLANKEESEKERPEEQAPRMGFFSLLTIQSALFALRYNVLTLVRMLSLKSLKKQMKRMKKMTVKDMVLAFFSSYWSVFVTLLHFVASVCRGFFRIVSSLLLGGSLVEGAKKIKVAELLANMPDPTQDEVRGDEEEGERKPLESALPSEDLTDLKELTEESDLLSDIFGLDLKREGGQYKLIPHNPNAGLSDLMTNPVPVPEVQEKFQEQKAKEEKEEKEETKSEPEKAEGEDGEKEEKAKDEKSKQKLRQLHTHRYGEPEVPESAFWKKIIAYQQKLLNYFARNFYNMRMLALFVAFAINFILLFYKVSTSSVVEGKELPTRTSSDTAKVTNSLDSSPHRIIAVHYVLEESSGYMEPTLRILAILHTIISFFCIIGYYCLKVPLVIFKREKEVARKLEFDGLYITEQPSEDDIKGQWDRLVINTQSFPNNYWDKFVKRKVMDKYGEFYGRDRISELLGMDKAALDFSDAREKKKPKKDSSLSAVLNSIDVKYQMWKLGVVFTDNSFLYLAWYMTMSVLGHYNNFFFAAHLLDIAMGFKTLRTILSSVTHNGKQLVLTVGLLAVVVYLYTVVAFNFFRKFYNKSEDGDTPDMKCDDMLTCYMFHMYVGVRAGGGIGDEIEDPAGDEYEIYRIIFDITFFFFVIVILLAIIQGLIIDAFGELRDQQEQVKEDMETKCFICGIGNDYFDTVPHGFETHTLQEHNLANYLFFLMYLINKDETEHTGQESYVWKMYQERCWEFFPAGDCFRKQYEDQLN", "assay": "Time-lapse [Ca2+]ER assay (RyR2 R-CEPIA1er assay) in HEK-293 cells", "settings": "25 µM, vs. 0.1 v/v% DMSO", "procedure": "HEK-293 cells stably expressing R-CEPIA1er and WT RyR2 (generous gift from Takashi Murayama, Juntendo University School of Medicine, Tokyo) were cultured in Dulbecco's Modified Eagle medium (DMEM, Thermo Fisher Scientific, Darmstadt, Germany) supplemented with 10% fetal bovine serum (FBS, Thermo Fisher Scientific, Darmstadt, Germany), 0.9% Penicillin/Streptomycin (Merck KGaA, Darmstadt, Germany), 15ug/mL Blasticidine (Invivogen, Toulouse, France), 100 µg/mL Hygromycin (Merck KGaA, Darmstadt, Germany) and 400 µg/mL G418 (Thermo Fisher Scientific, Darmstadt, Germany) in a humidified 5% COz incubator at 37 °C. To induce the expression of WT RyR2 in the endoplasmic reticulum (ER), 2 µg/mL Doxycycline (Merck KGaA, Darmstadt, Germany) was added 24 h before experiments.\nThe fluorescent plate reader [Ca^2+]ER assay was performed according to the slightly modified protocol of Murayama & Kurebayashi [T. Murayama, N. Kurebayashi, Assays for Modulators of Ryanodine Receptor (RyR)/Ca(2+) Release Channel Activity for Drug Discovery for Skeletal Muscle and Heart Diseases. Curr. Protoc. […] After the cells were inducted with Doxycycline for 24 h, changes in ER calcium concentrations [Ca^2+]ER were measured on a multiwell plate reader TECAN Spark 20M at 37 °C. The 1000 × stock solutions of the test compounds were prepared in DMSO. Briefly, the culture medium was removed and 100 µl of Tyrode's solution containing 2 mM CaCl2 was added to the cells. The time courses were recorded in each well. Fluorescence was evoked by 560 nm excitation wavelength and collected in a bottom-read mode at 610 nm. Data was recorded every 10 s, exposure - 20 flashes, excitation bandwidth - 20 nm, emission bandwidth - 20 nm. 100 µl of 0 - 100 µM solution of test compound in Tyrode's solution containing 2 mM CaCh was injected in each well (speed 100 µl/s) at the 90 s time point. […] The 0.1 v/v% DMSO and 2 mM CaCh Tyrode's solution was used as a control.\nThe dose response curves were calculated using the software package GraphPad Prism version 8.3.1. (GraphPad Software, Inc.). All data are presented as mean ± S.D. in 3 independent experiments. Y=Bottom + (Top-Bottom)/(1+10^((LogEC50-X)*HillSlope)) was used where HillSlope describes the steepness of the curve, Top and Bottom are plateaus in the units of the Y axis.\nThe inventors measured changes in Ca^2+ levels in the endoplasmic reticulum (ER) of HEK-293 cells with inducible expression of wild-type RyR2 (WT RyR2) [T. Murayama, N. Kurebayashi, M. Ishigami-Yuasa, S. Mori, Y. Suzuki, R. Akima, H. Ogawa, J. Suzuki, K. Kanemaru, H. Oyamada, Y. Kiuchi, M. Iino, H. Kagechika, T. Sakurai, Efficient High-Throughput Screening by Endoplasmic Reticulum Ca(2+) Measurement to Identify Inhibitors of Ryanodine Receptor Ca(2+)-Release Channels. […] The cells additionally stably express the Ca^2+ fluorescence indicator R-CEPIA1er, which is a genetically encoded sensor protein of Ca^2+ in the ER ([Ca^2+]ER) [T. Murayama, N. Kurebayashi, Assays for Modulators of Ryanodine Receptor (RyR)/Ca(2+) Release Channel Activity for Drug Discovery for Skeletal Muscle and Heart Diseases. Curr. Protoc.\nThe fluorescence ratio F/F0 was calculated, where F0 - is the average fluorescence for the first 90 s, F - is the average fluorescence for the last 100 s, and normalized."}, "[1]": {"system": "saponin-permeabilized ventricular cardiomyocytes (sp-vCM) from WT mice", "assay": "Ca2+ wave decay in saponin-permeabilized ventricular cardiomyocytes, WT mice", "settings": "10 µM, result in words", "text": "(§1) • Figure 1: Synthesis scheme showing the synthesis of multifunctional compounds with cyclopropanol residues based on 1,4 -benzothiazepines. The respective reaction conditions (a) to (i) are as follows: (a) Jones reagent, aceton; (b) H2SO4, EtOH; (c) EtMgBr, Ti(OiPr)4, EtzO; (d) t-BuMe2SiOSO2CF3, 2,6-lutidine, DCM; (e) Hz, Pd/C, THF; (f) Dess-Martin reagent, DCM; (g) K2CO3, 1,4-dioxane; (h) N2H4*H2O, EtOH; (i) Na(CH3COO)3BH, 1,2-dichloroethane; (j) NaH, DMF; (k) aq. HF (55%), MeCN or 1 M n-Bu4NF in THF or KF, Et3N*HCl, MeOH. m,n = 2-8. • Figure 2: Synthesis scheme showing the synthesis of multifunctional compounds with cyclopropanol residues based on the \"open\" analogs 1,4 -benzothiazepines (i.e. 3-[(4-methoxyphenyl)oxy]-and 3-[(4-methoxyphenylthio)]propane-1-amine derivatives). […] Values represent the mean ± S.D., *** P < 0.0005, **** P < 0.0001 vs. DMSO by unpaired t test; n = 6 - 28. • Figure 6: Time-lapse fluorescence measurements using TECAN Spark 20M plate reader with HEK293 cells expressing WT RyR2 and R-CEPIA1er indicator. […] Fluorescence ratio F/F0, where F0 - average fluorescence signal for the first 90 seconds, F- average fluorescence signal for the last 100 s, was taken for the calculations. […] Data sets were analyzed by unpaired Student's t-test. n.s. non-significant with P=0.59 for Dan, **, P<0.01 with P=0.003 for S36, and *, P<0.05 with P=0.019 for GM1869; (D, E, F) Relative changes in the decay time tau of Ca2+ transients from spontaneous Ca2+ waves (in control/drug) by Dan (D, 10µM), S36 (E, 10 µM), and GM1869 (F, 10 µM) in cardiomyocytes from WT and RyR2R2474S/+ mice. […] Rise times represent the tau values calculated by a mono-exponential fit of the Ca2+ transients from start to the peak of the signal. Ca2+ transients were recorded in control conditions and every 2 min (S36) or 4 min (GM1869) after drug application. **, P = 0.0065 for S36; ****, P = 0.000019 for GM1869, evaluated by paired Student's t-test. […] Decay times represent the tau values calculated by a mono-exponential fit of the Ca2+ transients from half maximum to baseline of the signal. […]"}, "[2]": {"system": "saponin-permeabilized ventricular cardiomyocytes (sp-vCM) from RyR2R2474S/+ mice", "assay": "Ca2+ wave decay in saponin-permeabilized ventricular cardiomyocytes, RyR2R2474S/+ mice", "settings": "10 µM, result in words", "text": "as §1"}}, "data": [{"smiles": "O=C1CN(/N=C/c2ccc(-c3ccc([N+](=O)[O-])cc3)o2)C(O)=N1", "note": "[dantrolene]", "values": [{"measurement": "effect on [Ca^2+]ER (R-CEPIA1er fluorescence), in words", "setting": "WT RyR2", "result": "increase in R-CEPIA1er fluorescence"}, {"measurement": "Relative changes in the decay time tau of Ca2+ transients from spontaneous Ca2+ waves (in control/drug)", "setting": "[1]", "result": "significantly above 1"}, {"measurement": "Relative changes in the decay time tau of Ca2+ transients from spontaneous Ca2+ waves (in control/drug)", "setting": "[2]", "result": "significantly above 1"}]}]}
